Experiments:
TrkB F616A = target: T1, TrkB F616A (Mus musculus, UniProt P15209, F616A); experiment: TrkB phosphorylation in cortical neurons from TrkB F616A knockin mice; format: cell-based; details: inhibitor 100 nM, pretreated 30 minutes
T1 construct: endogenous in cells; host or cells: cortical neurons of TrkB F616A knock-in mice
Method: (§1) To explore whether the neuroprotective action of 7,8-dihydroxyflavone is dependent on TrkB activation in vivo, TrkB F616A knockin mice were used. […] To further assess whether 7,8-dihydroxyflavone can mimic BDNF, cortical neurons were prepared from TrkB F616A knockin mice. The cortical neurons were pretreated for 30 minutes with either K252a Trk tyrosine kinase inhibitor (100 nM) or 1NMPP1 inhibitor (100 nM) followed by 0.5 μM 7,8-dihydroxyflavone for 30 minutes.

Akt and Erk1/2 = Akt and Erk1/2 activation in cortical neurons from TrkB F616A knockin mice; format: cell-based; details: inhibitor 100 nM
Method: as §1

KA-provoked apoptosis = experiment: KA-provoked neuronal cell death in TrkB F616A knockin mice, intraperitoneal (caspase-3 immunoblot); format: in vivo
Method: To determine if 1NMPP1 would make neurons treated with 7,8-dihydroxyflavone vulnerable to KA-provoked neuronal cell death, TrkF616A knockin mice were fed with 1NMPP1 (25 mM) in drinking water one day prior to pharmacological reagent treatment. The next day, the mice were intraperitoneally injected with KA (25 mg/kg), or 7,8-dihydroxyflavone (5 mg/kg) 4 hours prior to KA injection. The control mice were injected with either KA or 7,8-dihydroxyflavone alone, or the mice were administered 7,8-dihydroxyflavone 4 hours before KA. In 4 days, the mice were sacrificed and the brains were homogenated and ultracentrifuged. The supernatant was employed for SDS-PAGE and immunoblotting analysis.

immobility time = experiment: Forced swim test in TrkB F616A knockin mice with saline or 1NMPP1 pretreatment; format: in vivo; details: 1NMPP1 25 μM in drinking water
Method: To assess whether the behavior responses by 7,8-DHF and its derivative are mediated by TrkB receptor, TrkB F616A knockin mice were utilized. The transgenic mice were subjected to saline or 1NMPP1 pretreatment (25 μM), respectively (drinking water provided one day prior to drug injection and maintained throughout whole experiment). The control and/or drugs were provided for five days. […] (Data presented in FIGS. 34, 35, and 36 as mean±SEM; *p<0.05 against vehicle, #P<0.01 against vehicle and ***P<0.0001 against vehicle, student t-test.)

TrkB [1] = target: T2, TrkB (Rattus norvegicus, UniProt Q63604); experiment: TrkB activation in primary cortical neurons (p-TrkB Y817 immunoblotting); format: cell-based; design: endogenous in cells; host or cells: primary cortical neurons; details: 500 nM, 30 min, FIG. 27 left
Method: Primary cultured rat cortical neurons were prepared as follows. E17 rat pups were decapitated and cortex was extirpated, cross chopped, and suspended by pipetting for separation in 5% fetal calf serum (FCS), 5% horse serum (HS) DMEM. The cell suspension was then centrifuged at 250×g for 5 minutes. This operation was repeated again. Cells were seeded into polyethyleneimine-coated 10 cm^2 dishes and 12-well plates including coated-coverslips and incubated at 37° C. in 5% CO2/95% air. After 3 hours, the culture medium was changed to Neurobasal containing B-27 supplement (Invitrogen; Carlsbad, Calif.) and incubated for 4 days. For maintenance, half of the culture medium was changed to fresh Neurobasal/B27 every 4 days. After 1 week, the dished cultured neurons were ready for use.
To compare the TrkB activation by the synthetic compounds of Examples 9 and 10 (see FIG. 26), primary cortical cultures were prepared. The cortical neurons were treated with 500 nM of various compounds for 30 min and collected the cell lysates. […] Replacing the H-bond acceptor O atom with hydrogen bond donor NH reduced its stimulatory effect. […] In comparison, 7,8-DHF provoked TrkB activation with the minimal concentration of 100 nM (FIG. 27, right panels).
Target sequence in this assay (Q63604 32-821): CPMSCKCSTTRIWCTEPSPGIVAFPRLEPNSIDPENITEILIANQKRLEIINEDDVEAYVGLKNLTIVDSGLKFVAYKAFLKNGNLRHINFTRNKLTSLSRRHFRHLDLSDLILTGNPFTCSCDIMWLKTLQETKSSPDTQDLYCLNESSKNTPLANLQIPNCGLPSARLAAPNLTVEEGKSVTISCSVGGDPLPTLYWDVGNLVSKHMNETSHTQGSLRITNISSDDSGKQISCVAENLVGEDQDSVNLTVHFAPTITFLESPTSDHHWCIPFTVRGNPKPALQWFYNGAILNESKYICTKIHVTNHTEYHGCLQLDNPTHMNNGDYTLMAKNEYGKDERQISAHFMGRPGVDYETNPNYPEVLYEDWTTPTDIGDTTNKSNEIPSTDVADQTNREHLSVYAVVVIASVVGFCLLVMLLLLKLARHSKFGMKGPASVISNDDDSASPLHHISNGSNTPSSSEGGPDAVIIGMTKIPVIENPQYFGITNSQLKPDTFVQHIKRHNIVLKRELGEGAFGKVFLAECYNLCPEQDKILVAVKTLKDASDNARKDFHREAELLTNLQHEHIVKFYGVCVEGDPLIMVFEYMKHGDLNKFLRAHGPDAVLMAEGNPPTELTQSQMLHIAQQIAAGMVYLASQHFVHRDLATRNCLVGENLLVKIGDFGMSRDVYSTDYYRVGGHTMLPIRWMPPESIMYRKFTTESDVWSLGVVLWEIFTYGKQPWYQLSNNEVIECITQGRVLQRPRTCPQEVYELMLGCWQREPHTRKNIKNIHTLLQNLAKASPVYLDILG

T48 cells = experiment: Fluorescent apoptotic assay (Staurosporine, MR(DEVD)2) in TrkB stably transfected T48 cells; format: cell-based, murine; details: for EC50: Mus musculus, T48 cells, FIG. 5, read-out: effective concentration at which 50% (EC50) of the cells are protected from apoptosis; for suppression of apoptosis in T48 cell line: Staurosporine-induced apoptosis, FIG. 1B and FIG. 4
Text: Create and test reporter cell lines. In order to identify small molecules that mimic BDNF and activate TrkB, TrkB stably transfected murine cell lines were created. The T48 and T62 cell lines were created by transfecting basal forebrain SN56 cells, which express negligible TrkB, with a TrkB expression construct. […] To test resistance to apoptosis, SN56 cells and the T48 cell line were either untreated or treated with BDNF, and then subjected to an apoptotic assay. Briefly, the cells were treated with 0.75 μM Staurosporine for 9 hours, and 1 hour before the termination of the experiment, the cells were treated with 10 μM MR (DEVD)2. The cells were then fixed with 4% paraformaldehyde for 15 minutes, washed with phosphate buffered saline (PBS), and incubated with Hoechst 33342 for 10 minutes. Cover slides were washed with PBS, mounted, and the cells were examined using a fluorescent microscope to see which cells turned red upon caspase cleavage.
Cell-based screen. To screen a large number of chemicals, a cell-based apoptic assay was developed using a cell permeable fluorescent dye, MR (DEVD)2, which turns red upon caspase cleavage in apoptotic cells. SN56 and T48 cells were plated at 10,000 cells per well in multiple 96-well plates and exposed to 2000 biologically active compounds from the Spectrum Collection Library for 30 minutes at a concentration of 10 μM in DMSO. Following exposure to the compounds, the cells were subjected to the developed fluorescent apoptotic assay described above (method schematically shown in FIG. 2).
In the initial screen, 5 of the 66 positive compounds were flavone derivatives or similar compounds. […] To compare the apoptosis inhibitory activity, the flavone derivatives were preincubated with SN56 and T48 cells, and subsequently were subjected to the fluorescent apoptotic assay as described above. […] Additionally, the effective concentration at which 50% (EC50) of the cells are protected from apoptosis was determined for 7,8-dihydroxyflavone, Cianidanol, Pinocembrin and Diosmetin.

hippocampal neurons = experiment: Glutamate-triggered apoptosis in hippocampal neurons; format: cell-based; details: pretreated 30 minutes, 50 μM glutamate for 16 hours, compared with BDNF, FIG. 6
Method: To examine whether these compounds could promote neuronal survival, hippocampal neurons were prepared and the cultures were pretreated with various flavone derivatives for 30 minutes, followed by treatment with 50 μM glutamate for 16 hours.

Erk = experiment: Western analysis of Erk phosphorylation in hippocampal neurons; format: cell-based; details: FIG. 9
Method: (§2) To further examine whether 7,8-dihydroxyflavone can stimulate TrkB-mediated downstream signaling cascades, Western analysis was performed.
(§3) To probe the time course of 7,8-dihydroxyflavone triggered TrkB activation, hippocampal neurons were treated with 7,8-dihydroxyflavone at 500 nM and phosphorylation of Erk and Akt was determined over time by Western analysis. […] Stimulation of Erk and Akt by 7,8-dihydroxyflavone also occurred in a dose dependent manner.

Akt = experiment: Western analysis of Akt phosphorylation in hippocampal neurons; format: cell-based; details: FIG. 9
Method: as §2, §3

Caspase-3 activation = experiment: Glutamate-provoked Caspase-3 activation in wild-type and TrkB-/- cortical neurons; format: cell-based, mice; details: control compounds, FIG. 21
Method: To determine whether 7,8-dihydroxyflavone can selectively activate TrkB receptor and prevent neuronal cell death, cortical neurons were prepared from homozygous pups of TrkB+/−mice, which were mated to the same genotype. […] Glutamate nonselectively elicited weak TrkA phosphorylation in both wild-type and TrkB-null neurons (FIG. 21, row 3).

TrkB [2] = target: T2, TrkB; experiment: TrkB receptor dimerization in cotransfected HEK293 cells (GST pull-down); format: cell-based; design: expressed in transfected cells; host or cells: HEK293
Method: BDNF is known to bind the TrkB receptor and provoke its dimerization (Barbacid, J. Neurobiol., 25:1386-1403, 1994; Klein et al, Cell, 66:395-403, 1991). To explore whether 7,8-dihydroxyflavone triggers TrkB receptor dimerization, HEK293 cells were cotransfected with GST-TrkB and HA-TrkB or HA-TrkA. The cells were then treated with BDNF or small flavone compounds (0.5 μM) for 30 minutes. The cells were harvested, washed once in PBS, and lysed in 1 ml lysis buffer (50 mM Tris, ph 7.4, 150 mM NaCl, 1 mM EDTA, 0.5% Triton X-100, 1.5 mM Na3VO4, 50 mM NaF, 10 mM sodium pyrophosphate, 10 mM sodium β-glycerophosphate, 1 mM phenylmethylsulfonyl fluoride (PMSF), 5 mg/ml aprotinin, 1 mg/ml leupeptin, 1 mg/ml pepstatin A) and centrifuged for 10 minutes at 14,000×g at 4° C. The supernatant was transferred to a fresh tube and transfected TrkB receptor was separated from the supernatant with glutathione beads, and the coprecipitated proteins were resolved on SDS-PAGE.
Target sequence in this assay (Q63604 32-821): as above
Target sequence in this assay (Q63604 32-821): as above

immobility = experiment: Forced swim test, 5 days intraperitoneal; format: in vivo, mice; details: intraperitoneally for 5 days; imipramine 20 mg/kg, amitryptyline 15 mg/kg, 7,8-dihydroxyflavone 5 mg/kg; FIG. 25
Method: Adult male mice (2-3 months old, n=8) were randomly submitted, without a pre-swim, to a forced swim test of 6 minutes with immobility recorded in the last 4 minutes. Mice were injected intraperitoneally for 5 days with saline, imipramine (20 mg/kg), amitryptyline (15 mg/kg), or 7,8-dihydroxyflavone (5 mg/kg). The mice were allowed to adapt to the test room for 2 days, and the mice were placed in a clear glass cylinder with a diameter of 16 cm, half-filled with clear water at 24° C. […] Data are presented as mean±SEM; *p<0.05 against vehicle, **P<0.01 against vehicle and ***P<0.0001 against vehicle, student t-test.

T1 sequence (P15209 32-821 F616A): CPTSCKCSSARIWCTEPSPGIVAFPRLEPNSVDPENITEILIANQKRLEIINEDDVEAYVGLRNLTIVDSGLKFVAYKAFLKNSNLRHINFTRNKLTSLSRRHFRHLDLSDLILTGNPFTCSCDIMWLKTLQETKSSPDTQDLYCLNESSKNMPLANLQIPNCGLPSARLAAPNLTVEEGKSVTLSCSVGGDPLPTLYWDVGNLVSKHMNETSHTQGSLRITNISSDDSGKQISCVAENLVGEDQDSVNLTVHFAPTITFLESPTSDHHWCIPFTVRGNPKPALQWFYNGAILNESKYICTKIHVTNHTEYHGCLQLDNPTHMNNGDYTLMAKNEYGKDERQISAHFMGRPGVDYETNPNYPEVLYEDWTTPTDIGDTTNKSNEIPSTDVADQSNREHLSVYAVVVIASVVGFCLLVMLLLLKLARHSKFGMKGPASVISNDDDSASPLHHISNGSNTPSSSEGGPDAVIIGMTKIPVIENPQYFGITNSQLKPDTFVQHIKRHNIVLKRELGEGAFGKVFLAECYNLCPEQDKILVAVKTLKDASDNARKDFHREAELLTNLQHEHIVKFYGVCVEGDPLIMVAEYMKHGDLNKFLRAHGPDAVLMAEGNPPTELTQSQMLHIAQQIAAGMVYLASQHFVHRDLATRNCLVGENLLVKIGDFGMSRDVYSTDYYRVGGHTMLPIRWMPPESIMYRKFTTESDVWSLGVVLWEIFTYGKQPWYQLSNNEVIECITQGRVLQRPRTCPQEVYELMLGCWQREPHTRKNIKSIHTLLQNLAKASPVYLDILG

`CC(C)(C)n1nc(Cc2cccc3ccccc23)c2c(N)ncnc21` [1NMPP1] was tested, and the “blocking of BDNF-provoked TrkB phosphorylation” value (TrkB F616A) was “selectively blocked”, the “blocking of 7,8-dihydroxyflavone-provoked TrkB phosphorylation” value (TrkB F616A; 0.5 μM 7,8-dihydroxyflavone) was “selectively blocked” and the “blocking of BDNF-triggered Akt and Erk1/2 activation” value (Akt and Erk1/2) was “blocked”. The “effect on Akt activation by 7,8-dihydroxyflavone” value (Akt and Erk1/2) was “partially decreased Akt activation”, the “effect on Erk1/2 activation by 7,8-dihydroxyflavone” value (Akt and Erk1/2) was “failed to inhibit Erk1/2 activation” and the “effect of pretreatment on KA-provoked apoptosis” value (KA-provoked apoptosis; 1NMPP1 in drinking water) was “elevated KA-provoked apoptosis”. The “apoptosis in TrkB F616A mice, treatment alone without KA” value (KA-provoked apoptosis; FIG. 24) was “no effect on apoptosis” and the “immobility time, 1NMPP1 treated versus saline control groups” value (immobility time) was “No significant difference”.

For `Br.O=c1cc(-c2ccc(F)cc2)[nH]c2c(O)c(O)ccc12` [2-(4-fluorophenyl)-7,8-dihydroxyquinolin-4(1H)-one.HBr], the TrkB activation (TrkB [1]) was “did not provoke the same level of TrkB activation”.

`Br.O=c1cc(-c2cncnc2)oc2c(O)c(O)ccc12` [7,8-dihydroxy-2-(pyrimidin-5-yl)-4H-chromen-4-one.HBr] was tested, and the TrkB activation (TrkB [1]) was “robustly provoked TrkB activation”.

With `Br.O=c1cc(-c2ccccc2)[nH]c2c(O)c(O)ccc12` [7,8-dihydroxy-2-phenylquinolin-4(1H)-one, 7,8-dihydroxy-2-phenylquinolin-4(1H)-one.HBr] the TrkB activation (TrkB [1]) was “did not provoke the same level of TrkB activation”.

For `Oc1cc(O)c2c(c1)O[C@H](c1ccc(O)c(O)c1)[C@@H](O)C2` [Cianidanol], the EC50 (T48 cells) was 100 nM, the “suppression of apoptosis in T48 cell line” value (from here on “suppression of apoptosis”) (T48 cells) was “strongly suppressed apoptosis” and the “protection of hippocampal neurons from glutamate-induced apoptosis” value (shortened to “protection of hippocampal neurons”) (hippocampal neurons) was “comparable anti-apoptosis activity as BDNF”. The “Erk activation (Western)” value (Erk) was “activated”.

In the case of `COc1ccc(-c2cc(=O)c3c(O)cc(O)cc3o2)cc1O` [Diosmetin, reference compound], the EC50 (T48 cells) is reported as 500 nM, the “suppression of apoptosis” value (T48 cells) is reported as “strongly suppressed apoptosis” and the “protection of hippocampal neurons” value (hippocampal neurons) is reported as “only slightly protected neurons”. For the same molecule, the “Akt activation (Western)” value (Akt) was “activated”, the “Erk activation (Western)” value (Erk) was “activated” and the “caspase-3 activation in both wild-type and TrkB-/- neurons” value (Caspase-3 activation) was “non-selectively suppressed caspase-3 activation in both neurons”.

`Oc1ccc([C@H]2Oc3cc(O)cc(O)c3C[C@H]2O)cc1` [Epiafzelechin] was tested, and the “suppression of apoptosis” value (T48 cells) was “failed to suppress apoptosis” and the “protection of hippocampal neurons” value (hippocampal neurons) was “only slightly protected neurons”.

For `Oc1ccc2c(c1)O[C@H](c1ccc(O)c(O)c1)[C@@H](O)C2` [Fisetinidol], the “suppression of apoptosis” value (T48 cells) was “failed to suppress apoptosis” and the “protection of hippocampal neurons” value (hippocampal neurons) was “no effect”.

In the case of `CC1=CC(=O)c2ccccc2C1=O` [Menadione], the “suppression of apoptosis” value (T48 cells) is reported as “strongly suppressed apoptosis” and the “protection of hippocampal neurons” value (hippocampal neurons) is reported as “comparable anti-apoptosis activity as BDNF”.

For `O=C1C[C@@H](c2ccccc2)Oc2cc(O)cc(O)c21` [Pinocembrin, reference compound], the EC50 (T48 cells) was 100 nM, the “suppression of apoptosis” value (T48 cells) was “strongly suppressed apoptosis” and the “protection of hippocampal neurons” value (hippocampal neurons) was “comparable anti-apoptosis activity as BDNF”. The “Erk activation (Western)” value (Erk) was “activated”, the “caspase-3 activation in both wild-type and TrkB-/- neurons” value (Caspase-3 activation) was “non-selectively suppressed caspase-3 activation in both neurons” and the TrkB dimerization (TrkB [2]; GST-TrkB and HA-TrkB, 0.5 μM, 30 minutes, FIG. 14) was “failed”.

With `O=c1c(O)c(-c2ccc(O)c(O)c2)oc2cc(O)cc(O)c12` [Quercetin, reference compound] the “Erk activation (Western)” value (Erk) was “activated”.

`CN(C)CCC=C1c2ccccc2CCc2ccccc21` [amitryptyline] was tested, and the swimming immobility (immobility) was “decreased”.

With `CN(C)CCCN1c2ccccc2CCc2ccccc21` [imipramine] the swimming immobility (immobility) was “decreased”.

B1: BDNF: brain-derived neurotrophic factor, positive control, from Roche (protein, UniProt P23560 19-247, looked up)
Neurotrophic factor BDNF …: APMKEANIRGQGGLAYPGVRTHGTLESVNGPKAGSRGLTSLADTFEHVIEELLDEDQKVRPNEENNKDADLYTSRVMLSSQVPLEPPLLFLLEEYKNYLDAANMSMRVRRHSDPARRGELSVCDSISEWVTAADKKTAVDMSGGTVTVLEKVPVSKGQLKQYFYETKCNPMGYTKEGCRGIDKRHWNSQCRTTQSYVRALTMDSKKRIGWRFIRIDTSCVCTLTIKRGR
For B1, the “suppression of apoptosis” value (T48 cells) was “decreased apoptosis” and the “dimerization of TrkB with TrkA receptor” value (TrkB [2]; GST-TrkB and HA-TrkA cotransfected) was “failed to dimerize with TrkA receptor”.

From patent US9895344B2, “Treating various disorders with 7,8-dihydroxyflavone and derivatives thereof” (EMORY UNIVERSITY, priority 2008, dated 2018)
